Results reported in article PMC9877316, “Identification of a novel P2X7 antagonist using structure-based virtual screening” (Frontiers in Pharmacology, 2023).

Key:
rat P2X7 = molecular target: T1, rat P2X7 (Rattus norvegicus, UniProt Q64663); test: ATP/BzATP-induced YoPro-1 dye uptake assay, rat P2X7; type: cell-based
T1 construct: expressed in transfected cells; host or cells: HEK-293 cells stably expressing rat P2X7-GFP (patch clamp)
T1 sequence (Q64663 1-595): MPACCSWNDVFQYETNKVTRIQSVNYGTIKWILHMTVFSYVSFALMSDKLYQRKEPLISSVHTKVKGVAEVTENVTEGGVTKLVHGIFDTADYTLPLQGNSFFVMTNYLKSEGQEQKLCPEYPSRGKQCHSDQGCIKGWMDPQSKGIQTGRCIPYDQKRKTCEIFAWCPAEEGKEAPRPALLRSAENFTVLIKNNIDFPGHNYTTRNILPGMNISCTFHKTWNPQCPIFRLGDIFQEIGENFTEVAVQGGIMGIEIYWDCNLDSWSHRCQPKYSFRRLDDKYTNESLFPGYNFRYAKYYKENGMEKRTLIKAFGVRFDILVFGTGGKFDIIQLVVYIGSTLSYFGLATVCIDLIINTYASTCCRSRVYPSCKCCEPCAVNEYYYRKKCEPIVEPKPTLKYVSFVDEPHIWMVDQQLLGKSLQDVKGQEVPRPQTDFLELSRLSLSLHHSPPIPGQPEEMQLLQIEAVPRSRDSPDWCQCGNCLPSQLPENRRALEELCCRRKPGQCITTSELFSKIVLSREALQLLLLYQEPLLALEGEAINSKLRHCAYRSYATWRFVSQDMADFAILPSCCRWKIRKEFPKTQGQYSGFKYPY
Procedure: 1321N1 astrocytoma cells and HEK-293 cells were cultured (at 37°C, 5% CO2) in Dulbecco’s modified Eagle’s medium (DMEM/F-12 with Glutamax) supplemented with 10% foetal bovine serum (FBS) and 200 unit/ml of penicillin and streptomycin antibiotics (Fisher Scientific). For stable cell line generation, cells were transfected using FuGene HD Transfection Reagent (Promega) according to the manufacturer’s protocol with plasmids encoding either human P2X4 with a C-terminal (His)10 tag ([Young et al., 2008]), human P2X7 with a C-terminal EYMPME tag (kindly provided by R.A. North) or rat P2X7 C-terminally tagged with a GFP-(His)8 tag, generated by PCR amplification of the coding sequence for rat P2X7 from a pcDNA-based expression vector ([Young et al., 2007]), adding XhoI and EcoRI sites at the 5′- and 3′- ends respectively, followed by restriction digestion and ligation into a zebrafish P2X4-GFP expression vector based on pEGFP-C1 (kindly provided by Eric Gouaux; [Kawate and Gouaux, 2006]) to replace the zebrafish P2X4 coding region with rP2X7. Transfected clones were grown in DMEM/F-12 with Glutamax medium supplemented with G-418 (Geneticin®, Fisher Scientific), 600 μg/ml and 150 μg/ml during selection and maintenance respectively. […] HEK-293 cells stably expressing human P2X7 ([Adinolfi et al., 2010]) were a kind gift from Elena Adinolfi.
Cells were plated as for the calcium influx assay (Section 2.4). Culture medium was replaced with low divalent cation containing extracellular solution (ECS-LD; 147 mM NaCl, 10 mM HEPES, 13 mM Glucose, .2 mM CaCl2, 2 mM KCl. pH = 7.4 in MilliQ water) and 5 μM Yopro-1. […] The baseline was measured with a BMG Clariostar instrument for 5–10 cycles, followed by addition of ATP (or BzATP) and recording for at least 30 further cycles (approx. 1 min per data point). The collected responses were normalized to the first data-point recorded after ATP addition. The initial gradient of the dye uptake curve was used to calculate the response to ATP.
In order to confirm GP-25 as a competitive (orthosteric) antagonist, BzATP concentration-response curves (ranging between 300 μM and .03 µM) were constructed for rat P2X7-GFP in the YoPro-1 uptake assay in the presence of increasing concentrations of GP-25 (Figure 3A).

HEK-293 = test: CellTiter-Blue cell viability assay; type: cell-based, human; conditions: 30 µM compound; 24 h incubation; HEK-293 wild-type
Procedure: To assess hit compound toxicity, CellTiter-Blue Cell Viability Assay (Promega, Southampton, United Kingdom) was used as recommended by the manufacturer on not transfected HEK-293. Cells were seeded in 96-well plates (100 μL at a concentration of 30–35,000 cells/ml) in culture media and a day later media was replaced with 100 µL fresh media containing 30 µM of tested compounds (10 µM of A740003). After 24 h incubation at 37 °C, 5% CO2, 20 µL of CellTiter Blue reagent was added to each well and incubated for 3 h at 37°C. Fluorescence was then measured with a BMG Clariostar using excitation/emission wavelengths of 560/590 nm. Data were normalized to vehicle control-treated cells (.1% DMSO).

- Schild plot slope (rat P2X7; BzATP concentration-response curves, rat P2X7-GFP, increasing GP-25 up to 100 µM): 1.004 ± .2584
- mode of antagonism (Schild analysis) (rat P2X7; BzATP, rat P2X7-GFP, YoPro-1): competitive (orthosteric) antagonism
- IC50 (rat P2X7; YoPro-1 uptake, 300 µM ATP): 24.4 µM
- inhibition at 30 µM (rat P2X7; approx. % inhibition at 30 μM compound, 300 µM ATP, YoPro-1 uptake, rat P2X7-GFP, read-out: % Inhibition at rP2X7): 47%
Structure (SMILES): COC(=O)C1=C(C)NC2=C(C(=O)c3ccccc32)C1c1cc(Br)ccc1OCC(=O)O (centres unmarked) [Compound 9, (4-bromo-2-(3-(methoxycarbonyl)-2-methyl-5-oxo-4,5-dihydro-1H-indeno(1,2-b)pyridine-4-yl)phenoxy)acetic acid]
- cell viability (HEK-293): did not significantly reduce cell viability
